Read-outs that look alike come from different tables or passages of the source.
How the values were obtained:
[1] = system: wild-type HIV-1; details: read-out: IC50 (50% inhibitory concentration), MT-4 cells, cited from earlier work
[2] = system: AZT-resistant strain derived from wild-type HIV-1; details: read-out: IC50 (50% inhibitory concentration); second passage of the AZT-resistant progeny, MT-4 cells; cited from earlier work
[3] = target: HIV-1 protease, wild type, expressed as part of truncated HIV-1 polyprotein (Human immunodeficiency virus type 1 group M subtype B, UniProt P04585); assay type: cell-based
Excerpt: Plasmid pART-2 was digested with Bgl II and Eco RI to obtain a nucleotide sequence coding for a portion of the HIV-1 polyprotein (i.e., the HIV-1 protease protein, the HIV-1 reverse transcriptase protein and a portion of the HIV-1 integrase protein). The isolated 2.3 kb fragment was then inserted into the pTrcHisC plasmid (obtained from Invitrogen, San Diego, Calif.), which had previously been digested with the same restriction enzymes, to yield the plasmid pL124.23. The pL124.23 plasmid contains upstream sequences coding for a series of six histidine residues fused to a gene 10 segment, all of which are in frame with the inserted fragment. An enterokinase cleavage recognition site is also located between gene 10 and the truncated polyprotein. The inserted sequences, as well as the described upstream sequences are all under control of a T7 promoter. The T7 polymerase in the host cell (Top 10, Invitrogen) is inducible with IPTG.

Structure (SMILES)	IC50 ([1]; fourth passage of the wild-type progeny)	IC50 ([1]; passage 6 virus, tested at higher compound concentrations)	IC50 [2]	processing of the polyprotein by HIV protease [3]
Nc1nc(=O)n([C@@H]2CS[C@H](CO)O2)cc1F [FTC]	> 50 µM	> 250 µM	> 50 µM	–
CC(C)(C)NC(=O)[C@@H]1CN(Cc2cccnc2)CCN1C[C@@H](O)C[C@@H](Cc1ccccc1)C(=O)N[C@H]1c2ccccc2C[C@H]1O [L-735,524]	–	–	–	did not allow processing of the polyprotein

Reference: patent publication US6063562A (priority 1995, dated 2000)
